Measured values reported in US20190072541A1, “BIOMARKERS FOR TREATMENT OF ALOPECIA AREATA” (THE TRUSTEES OF COLUMBIA UNIVERSITY IN THE CITY OF NEW YORK, priority 2015, published 2019).

Legend:
[1] = test system: patients with moderate to severe AA; assay: Oral ruxolitinib in three patients with moderate to severe AA (hair regrowth, biopsies); assay type: in vivo, human
Experimental: Skin punch biopsies (4 mm) were obtained at baseline and after 12 weeks of treatment.
For immunohistochemical studies of human skin, 5 μM formalin fixed and paraffin skin section were used. […] ImmPRESS HRP Anti Rabbit Ig or Mouse Ig (Peroxidase) Polymer (Vector Lab) were used as secondary antibody.
The IFN and CTL signatures were used to develop a bivariate score statistic. Individual signature IFN and CTL scores were determined following procedures used in human SLE. The sets of genes selected to comprise the IFN and CTL signatures were CD8A, GZMB, and ICOS for the CTL signature, and CXCL9, CXCL10, CXCL11, STAT1, and MX1 for the IFN signature.

[2] = test system: patients with moderate to severe AA; assay: Open-label trial of oral ruxolitinib in 12 patients with moderate to severe AA: hair regrowth (SALT); assay type: in vivo, human
Text: (§1) The study's primary efficacy endpoint was the proportion of responders at end of treatment, defined as those subjects achieving at least 50% regrowth compared to baseline assessed by the Severity of Alopecia Tool (SALT) score, a standardized, validated method for estimating hair loss in AA. Secondary efficacy endpoints included hair re-growth as a continuous variable. […] To assess response durability, responders were followed for 3 months after treatment was completed. Safety analysis was included as a secondary endpoint for all subjects who received at least one dose of ruxolitinib and was monitored as described at monthly visits.

[3] = test system: ALADIN CTL, IFN and KRT signatures; assay: Skin biopsy gene expression / ALADIN scores in ruxolitinib trial; assay type: in vivo, human
Text: Biopsies and peripheral blood were obtained at baseline and after 12 weeks for immune monitoring and molecular studies. Several patients provided additional biopsies at intermediate time points during the course of treatment, and one patient provided an additional sample at week 24. Tissues specimens were fixed and stored in PAXgene Tissue Containers. Total RNA was extracted from skin biopsy specimens harvested during the course of the clinical trial using the PAXgene tissue miRNA kit. Library prep was performed for microarray analysis using Ovation RNA Amplification System V2 and Biotin Encore kits (NuGen Technologies, Inc., San Carlos, Calif.). Samples were subsequently hybridized to Human Genome U133 Plus 2.0 chips (Affymetrix, Santa Clara, Calif.) and scanned at the Yale Center for Genome Analysis. Library prep and microarray hybridization of RNA extracted from skin biopsies from three healthy controls were performed together with the samples from the treated patients for a total of 31 samples. Gene expression analyses included calculation of ALADIN scores, differential expression analysis of the expression levels for the identification of gene expression signatures, principal component analysis, and statistical analysis of the ALADIN scores. Microarray data from the 31 samples have been deposited in GEO under accession number GSE80342.
ALADIN scores were calculated for all […] using the batch corrected expression data. The CTL, IFN, and KRT ALADIN scores were determined following procedures outlined previously. Briefly, z-scores are calculated for each PSID relative to the mean and standard deviation of normal controls. Scores for each gene are obtained by averaging z-scores of PSIDs mapping to that gene. Signature scores are then calculated averages of the scores for genes belonging to the corresponding signature.
In order to examine possible differences between each of the CTL, IFN, and KRT ALADIN scores in responders and non-responders, in responders and normal controls and in non-responders and normal controls, the inventors tested for differences among the three groups using a Kruskal-Wallis test, followed by Wilcoxon Rank Sum tests as implemented in the coin package in R. The inventors then examined the change between baseline and ALADIN scores at 12 weeks for responders using Wilcoxon Signed Rank test as implemented in the coin package in R. The inventors further tested for differences in the three scores between responders at 12 weeks and normal controls.

[4] = test system: patients with moderate to severe AA; assay: Adverse events in ruxolitinib trial; conditions: in vivo
Text: as §1
Adverse events were assessed at every monthly visit. Patients were also encouraged to contact the study center in the interim between visits if they developed new signs or symptoms of concern.

C3H/HeJ grafted mice = assay: Prevention of AA in C3H/HeJ skin graft model, systemic treatment from time of grafting; assay type: in vivo, mouse; conditions: systemic administration from the time of grafting
Text: IL-2 and IL-15 are well-known drivers of cytotoxic activity by IFN-γ-producing CD8+ effector T cells and NK cells and have been implicated in the induction and/or maintenance of autoreactive CD8+ T cells. To test the efficacy of IFN-γ- and γ c-targeted therapies in vivo, the inventors used the well-established graft model of AA, in which skin grafts from mice with spontaneous AA are transferred onto the backs of unaffected 10-week-old recipient C3H/HeJ mice. In this model, AA develops reliably in 95-100% of grafted recipients within 6-10 weeks, allowing us to test interventions aimed at either preventing or reversing disease.
C3H/HeJ mouse strain (Jackson Laboratories, Bar Harbor, Me.) was used for all animal studies. Only female mice were used. Mouse recipients of alopecic skin grafts were aged 7-10 weeks at the time of grafting. For prevention experiments, drug administration began the day after grafting. For systemic treatment studies, drug administration was initiated approximately 3 months after mice lost their hair. For topical treatment studies, drug administration was initiated 20 weeks following grafting. […]
For the prevention experiments, a time-to-event survival analysis for interval censored data was performed. […] Hair growth index was calculated.

[5] = test system: CTL effectors from C3H/HeJ mice; assay: IL-15 responses in cultured CTL effectors; assay type: cell-based, mouse
dermal sheath cells = assay: CTL killing of dermal sheath cells; assay type: cell-based, mouse
[6] = test system: C3H/HeJ grafted mice with established AA; assay: Systemic treatment of established AA in grafted C3H/HeJ mice; assay type: in vivo, mouse
Text: C3H/HeJ mouse strain (Jackson Laboratories, Bar Harbor, Me.) was used for all animal studies. Only female mice were used. Mouse recipients of alopecic skin grafts were aged 7-10 weeks at the time of grafting. For prevention experiments, drug administration began the day after grafting. […] For topical treatment studies, drug administration was initiated 20 weeks following grafting. All animal procedures were done according to protocols approved by the Columbia University Medical Center Institutional Animal Care and Use Committee.

[7] = test system: C3H/HeJ mice with long-standing AA; assay: Topical treatment of established AA in grafted C3H/HeJ mice; assay type: in vivo, mouse; conditions: applied to back skin
Text: This experiment was repeated three times. […] NS, not significant. […] Scale bar, 100 μm. […] Scale bar, 200 μm.
Only female mice were used.

CXCL10 = assay: Serum CXCL10 ELISA in tofacitinib-treated AA patient; assay type: in vivo, human; conditions: baseline vs 4 weeks of treatment
Experimental: (§2) Punch biopsies of the scalp (FIG. 17) and blood draws were performed at baseline and after 4 weeks of treatment to monitor gene expression and biomarker changes. […] In addition, microarray analysis was performed on the skin biopsy samples.

[8] = test system: ALADIN IFN and CTL signatures; assay: ALADIN scores of scalp biopsies in tofacitinib-treated AA patient; assay type: in vivo, human; conditions: baseline vs 4 weeks of treatment
Experimental: as §2

[9] = test system: patient with persistent moderate/severe AA; assay: Oral tofacitinib in one patient with persistent moderate/severe AA (hair regrowth, safety)
[10] = systemic therapy initiated 7 weeks after grafting

Compound: N#CC[C@H](C1CCCC1)n1cc(-c2ncnc3[nH]ccc23)cn1 [ruxolitinib]
- regrowth achieved ([1]; oral 20 mg BID for at least 3 months): over 90%
- time to near-complete hair regrowth ([1]; oral, 20 mg twice daily): 3 to 5 months
- proportion of patients achieving the primary outcome of at least 50% regrowth ([2]; 20 mg PO twice daily, 3 to 6 months, nine of twelve patients): 75%
- mean SALT score at 3 months ([2]; baseline 65.8±28.0%): 24.8±22.9%
- mean SALT score at the end of 6 months of treatment ([2]; baseline 65.8±28.0%, p<0.004): 7.3±13.5%
- average hair regrowth at the end of treatment ([2]; nine responding patients): 92%
- reduction in hair loss from baseline, responders as a group ([2]; responders): 92%
- CTL score at week 12, overall ([3]; all patients, baseline 8.30, p<0.004): 1.51
- IFN score at week 12, overall ([3]; all patients, baseline 31.08, p<0.004): −0.37
- KRT score at week 12, overall ([3]; all patients, baseline −39.36, p=0.054): −15.02
- CTL score at week 12, responders only ([3]; baseline 9.37, p<0.008): 1.6
- IFN score at week 12, responders only ([3]; baseline 38.37, p<0.008): 0.24
- KRT score at week 12, responders only ([3]; baseline −37.84, p=0.039): −15.42
- earliest time decreased IFN and CTL scores were demonstrable after the initiation of treatment ([3]; post-treatment biopsies): 2 weeks
- URI/allergy symptoms ([4]; human): 9 episodes
- GI symptoms [4]: mild GI symptoms
- UTI [4]: one UTI
- acne or scalp folliculitis [4]: Two patients developed lesions consistent with acne or scalp folliculitis
- bacterial skin infections [4]: three minor bacterial skin infections (in the same patient)
- conjunctival hemorrhage [4]: one conjunctival hemorrhage following a surgical procedure
- discontinuation of therapy [4]: no patients required discontinuation of therapy
- hemoglobin [4]: One patient developed lowered hemoglobin, which resolved with dose modification
- hepatic abnormalities [4]: No hepatic abnormalities were observed
- platelet counts [4]: No significant decline in platelet counts
- pneumonia [4]: one mild pneumonia
- serious adverse effects [4]: no serious adverse effects
- white blood cell counts [4]: modest declines of white blood cell counts initially but levels remained within normal limits

Compound: C[C@@H]1CCN(C(=O)CC#N)C[C@@H]1N(C)c1ncnc2[nH]ccc12 [tofacitinib]
- AA development in grafted recipients (C3H/HeJ grafted mice): prevented the development of AA
- CD8+NKG2D+ T cells in the skin (infiltration, accumulation, expansion) (C3H/HeJ grafted mice): prevented
- IL-15-induced upregulation of granzyme B and IFN-γ expression [5]: blocked
- IL-15-triggered pSTAT5 activation ([5]; cultured CTL effectors): blocked
- killing of dermal sheath cells (dermal sheath cells): blocked
- persistence of effects after the cessation of treatment ([6]; systemic therapy): 2-3 months
- frequency of CD8+NKG2D+ T cells [6, 10]: reduced the frequency of CD8+NKG2D+ T cells
- hair regrowth [6, 10]: substantial hair regrowth all over the body
- histological markers [6, 10]: reversed histological markers
- reversal of disease in treated lesions [7]: highly effective in reversing disease in treated lesions
- serum levels of CXCL10 (CXCL10): decreased after 4 weeks of treatment
- IFN and CTL signatures (ALADIN) [8]: decreased by 4 weeks of treatment, although not to the level of normal controls
- hair loss 8 weeks following cessation of treatment ([9]; FIG. 16 left panel): Minimal hair loss
- hair loss 16 weeks following cessation of treatment ([9]; FIG. 16 right panel): almost complete loss of scalp hair
- outcome after cessation of treatment ([9]; human, in vivo): near-complete hair loss
- adverse events ([9]; oral 5 mg twice daily): no adverse events reported
- hair regrowth at month 1 ([9]; oral 5 mg twice daily): Patchy regrowth
- laboratory abnormalities (complete blood count, complete metabolic panel, lipid profile) ([9]; oral 5 mg twice daily): no laboratory abnormalities
- regrowth of eyebrows and eyelashes ([9]; oral 5 mg twice daily): Significant regrowth
- scalp hair regrowth 4 months after initiating treatment ([9]; oral 5 mg twice daily): nearly complete
- scalp hair regrowth after three months of treatment ([9]; oral 5 mg twice daily): 94%
- scalp hair regrowth after two months of treatment ([9]; oral 5 mg twice daily): 62.5%
